Values of other authors as cited in US20100087454A1, “MUCOSAL BIOADHESIVE SLOW RELEASE CARRIER FOR DELIVERING ACTIVE PRINCIPLES” (priority 2007, published 2010).

Conditions: after systemic administration orally; relative to 50% inhibitory dose of herpes simplex-1 virus

SMILES: Nc1nc2c(ncn2COCCO)c(=O)[nH]1 [acyclovir]
- peak acyclovir concentrations in saliva: at the lower end of the 50% inhibitory dose of herpes simplex-1 virus
